Measurements: paper PMC8705693, “Roles of the Na^+/H^+ Exchanger Isoform 1 and Urokinase in Prostate Cancer Cell Migration and Invasion” (International Journal of Molecular Sciences, 2021)
Entries after “also recorded” stand apart in the source; their conditions may differ.

What was measured:
[1] = system: LNCaP; design: method as in PMID 9044824; settings: LNCaP xenografted SCID mice, high doses; cited from earlier work
[2] = system: DU 145; design: method as in PMID 9044824; settings: DU 145 xenografted SCID mice, high doses; cited from earlier work
[3] = system: NHE1; design: method as in PMID 21544803; settings: cited from earlier work
[4] = target: T1, NHE1 (Homo sapiens, UniProt P19634); test: Na+/H+ exchanger activity, double ammonium chloride pulse assay in DU 145 cells; format: cell-based
T1 construct: the activity of the NHE1 protein in DU 145 cells; host or cells: DU 145 human prostate cancer cells
Description: We next tested the efficacy of a new family of NHE inhibitors on the activity of the NHE1 protein in DU 145 cells. In order to do this, we used a double-pulse assay, in which there were two consecutive ammonium-chloride-induced acidifications. The rate of recovery in the second pulse in the presence of the inhibitor was measured relative to that of the first pulse in the absence of the inhibitor. In control experiments, we observed that the second pulse, in the absence of the inhibitor, was equivalent to that of the first (Figure 3A). […] A summary of the results is shown in Figure 3C–G, [32] and a summary of the IC50 values can be found in Table 1. […]
Figure 3 Characterization of the effects of pharmacological compounds on the activity of the Na^+/H^+ exchanger using the double-pulse assay. Na^+/H^+ exchanger activity was determined as described in Figure 2 and in the Section 4, using a dual ammonium chloride pulse assay. The rate of recovery in the first pulse, in the absence of the drug, was measured. […]
Intracellular pH was measured using 2′,7-bis(2-carboxyethyl)-5(6) carboxyfluorescein acetoxymethyl ester (BCECF-AM), in a similar manner to that described in [29]. […] Cells were loaded with BCECF and fluorescence was measured using a PTI Deltascan spectrofluorometer. NHE1 activity was measured after inducing an acute acid load using ammonium chloride. […]

[5] = system: DU 145 cells; test: Cell migration, wound-healing assay; format: cell-based, human
Description: Figure 4 Effects of NHE1-KO or NHE1 inhibition on cell migration examined in wild-type (WT) and NHE1-knockout (KO) DU 145 cells. The rate of closure of the induced gap was evaluated using the wound-healing assay, as described in the Section 4. (A) Examples of the effects of NHE1-KO on wound closure. Upper panel: example of WT DU 145 cells with gaps at 0 and 24 h. Middle panel: example of DU 145 NHE1 KO cells at 0 and 24 h. Lower panel: example of RI cell growth. (B) Summary of results; * indicates significant differences from the same group at 0 h, p < 0.05, n ≥ 6. (C,D) Effects of different concentrations of various NHE1/uPA inhibitors on migration (gap closure) of DU 145 cells. CT: control; EMD: EM87580; other compounds are as names. (C) Summary of the effects of 2 µM of various compounds on the migration of wild-type DU 145 cells. (D) Summary of the effects of 10 µM of various compounds on the migration of wild-type DU 145 cells (BB2-30F was used at 30 µM); * indicates significant differences from untreated control cells at p < 0.05.
Cell migration was studied using a wound-healing assay similar to that described in [13]. Briefly, cells were seeded in 12-well plates ([…]) the day before assay, and then grown to a confluent monolayer. A “scratch” was created in the cell monolayer with a p20 pipette tip in a straight line. The cells were washed twice with PBS to remove the debris, and the medium was changed to 2 mL of growth medium. To obtain the same field during image acquisition, three crosses were marked on the outside of each well as a reference. The scratch gaps above and below the crosses were measured. We acquired six images of the scratch for each well using a Leica DM IRB microscope (at 10× magnification). Arbitrary measurements of gap closure were quantified using Image-Pro Plus software. A minimum of six images/well and five measurements/image were acquired for each treatment; all treatments were repeated at least three times. Data shown are representative of the decrease in gap distance at 24 h, compared to the initial measurement at 0 h. […]

[6] = target: T1, NHE1; test: Na+/H+ exchanger activity, recovery from acute acid load (BCECF); format: cell-based; settings: 10 µM
Text: In the next series of experiments, we used NHE1 activity assays to examine the activity of wild-type DU 145 cells and the knockout cell line. […] For the wild type, it illustrates the initial pH, alkalinization caused by ammonium chloride, and the recovery from acidification caused by the removal of ammonium chloride. The recovery upon reintroduction of NaCl is illustrated for both wild-type and knockout cells (Figure 2A,B), and a summary of six experiments is shown in Figure 2E. For wild-type cells, the recovery was robust, at a rate of over 0.008 pH units/s. […] This may be due to either leakage out of the cell, or to the action of other proton transporters present in cells. […]
Figure 2 Na^+/H^+ exchanger activity in parental DU 145 cells, in NHE1-knockout cells (NHE1-KO), and in knockout cells that had NHE1 reintroduced (NHE1-RI). […] The intracellular pH was recorded in cells transiently acidified using ammonium chloride addition. […] (E) Bar graph showing a summary of the initial rate of recovery; this was measured relative to the wild-type protein and recorded as delta pH/s. n ≥ 6, mean +/− SE. […] The activity of NHE1 was calculated from the changes over the first 20 s of recovery from the acid load, and was expressed as ΔpH/s. […]
Intracellular pH was measured using 2′,7-bis(2-carboxyethyl)-5(6) carboxyfluorescein acetoxymethyl ester (BCECF-AM), in a similar manner to that described in [29]. […]

[7] = target: uPA (Homo sapiens, UniProt P00749); test: uPA activity assay; format: biochemical
Description: We next tested the efficacy of a new family of NHE inhibitors on the activity of the NHE1 protein in DU 145 cells. In order to do this, we used a double-pulse assay, in which there were two consecutive ammonium-chloride-induced acidifications. The rate of recovery in the second pulse in the presence of the inhibitor was measured relative to that of the first pulse in the absence of the inhibitor. In control experiments, we observed that the second pulse, in the absence of the inhibitor, was equivalent to that of the first (Figure 3A). […] A summary of the results is shown in Figure 3C–G, [32] and a summary of the IC50 values can be found in Table 1. The various compounds tested had differing potencies towards NHE1 activity. […] Figure 3C–G also show the inhibition of uPA activity for each compound on the same plots (red line), assayed as indicated in the Section 4. […] (Table 1).
Synthesis of NHE1/uPA inhibitors was as described previously, as was the determination of uPA activity, where each compound was described as the number in parentheses: BB2-50F (5), BB2-30F (26), AA1-111 (29), and AA1-135 (30).

[8] = system: DU 145 cells; test: Anchorage-dependent colony formation; format: cell-based, human; settings: 10 µM, 8 days
Description: To examine anchorage-dependent colony formation, we used 60 mm polystyrene dishes that had been coated to introduce hydrophilic groups producing a standard growth surface (Sarstedt, Numbrecht, Germany). To measure anchorage-dependent colony growth, the cells were plated into in the 60 mm dishes at a density of 1000 cells per dish. They were grown in complete growth media. To examine the effects of various compounds, 2–30 µM of the indicated drugs were added to culture dishes. An equal volume of DMSO (vehicle) alone was added to otherwise-untreated controls. After growth for 8 days, colonies were fixed in ice-cold methanol; they were stained with 0.5% crystal violet in methanol and washed, and then left to air-dry. The colonies of > 50 cells/colony were imaged and counted. The number of […] colonies was normalized to the number of control colonies and presented as a percentage of control colonies formed.

T1 sequence (P19634 whole entry): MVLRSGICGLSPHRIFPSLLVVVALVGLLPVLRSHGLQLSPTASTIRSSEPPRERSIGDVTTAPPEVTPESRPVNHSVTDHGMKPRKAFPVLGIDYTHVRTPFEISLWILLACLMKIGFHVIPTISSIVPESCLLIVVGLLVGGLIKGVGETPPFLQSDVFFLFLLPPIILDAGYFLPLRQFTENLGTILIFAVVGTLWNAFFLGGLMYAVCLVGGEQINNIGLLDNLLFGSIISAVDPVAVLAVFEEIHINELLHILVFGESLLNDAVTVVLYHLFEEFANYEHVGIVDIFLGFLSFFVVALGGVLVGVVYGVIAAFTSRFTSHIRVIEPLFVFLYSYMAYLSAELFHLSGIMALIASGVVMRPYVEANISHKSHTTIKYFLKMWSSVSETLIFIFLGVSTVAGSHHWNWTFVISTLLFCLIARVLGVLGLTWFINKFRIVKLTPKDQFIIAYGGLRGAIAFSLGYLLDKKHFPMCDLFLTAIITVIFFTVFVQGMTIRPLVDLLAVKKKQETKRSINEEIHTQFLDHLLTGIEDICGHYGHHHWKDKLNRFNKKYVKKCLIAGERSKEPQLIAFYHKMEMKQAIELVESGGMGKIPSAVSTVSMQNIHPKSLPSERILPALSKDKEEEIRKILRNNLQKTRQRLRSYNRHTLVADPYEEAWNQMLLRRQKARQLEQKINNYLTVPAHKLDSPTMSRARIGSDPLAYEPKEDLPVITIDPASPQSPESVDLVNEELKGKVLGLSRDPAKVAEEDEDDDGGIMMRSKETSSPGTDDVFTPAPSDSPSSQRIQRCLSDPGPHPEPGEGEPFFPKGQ

## N=C(N)NC(=O)c1nc(Cl)c(N)nc1N [Amiloride]
[1]
  tumor growth: inhibit
[2]
  tumor growth: inhibit
[3]
  inhibition of NHE1 (in words): low μM inhibitor

## [H]/N=C(\N)NC(=O)c1cc(S(C)(=O)=O)c(S(C)(=O)=O)cc1C [EMD87580, rimeporide]
[4]; 2 µM
  NHE1 inhibition (in words): complete NHE1 inhibition
[4]; DU 145 cells, double-pulse assay, read-out: Potency (IC50) towards NHE1
  IC50: 450 nM
[5]; 2 µM, DU 145
  cell migration: lack of effect
[5]; 10 µM, 24 h, wild-type DU 145
  cell migration (gap closure): only very slight, non-significant effects
[5]; any of the groups, including wild-type and RI DU 145 cells
  migration (gap closure): did not reduce migration
[6]; RI cells (NHE1 reintroduced into KO DU 145)
  NHE1 activity (initial rate of recovery): eliminated
[6]; wild-type DU 145 cells
  NHE1 activity (initial rate of recovery): eliminated
[7]
  inhibition of uPA activity (in words): no inhibitory activity; also recorded: no effect on uPA
[7]; 2 µM
  uPA inhibition (in words): minimal inhibition of uPA
[8]
  anchorage-dependent colony formation: no effect
